Measurements: PubChem BioAssay AID1552 (Sanford-Burnham Center for Chemical Genomics, 2009)
Activity calls are given as the source filed them. The rule behind the calls is not given here.

These compounds were tested against Ubiquitin-conjugating enzyme E2 N (Homo sapiens) (UniProt P61088) (assay: NMR detection of UBE2N ligand binding – biophysical, purified protein (AID 1552)). Conditions: NMR binding to purified UBE2N.
Chain of Ubiquitin-conjugating enzyme E2 N (Homo sapiens) (P61088 whole entry, looked up): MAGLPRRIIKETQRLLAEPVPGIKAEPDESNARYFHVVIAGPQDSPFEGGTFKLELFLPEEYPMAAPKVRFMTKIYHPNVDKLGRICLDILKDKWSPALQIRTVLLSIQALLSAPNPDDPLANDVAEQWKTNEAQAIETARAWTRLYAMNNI
With `CCN1CCC(NC2CCC(O)CC2)CC1` (stereo not given) the Kd was > 4 mM (inactive). In the case of `c1ccc(-c2noc(-c3ccc4c(c3)OCO4)n2)nc1`, the Kd was > 4 mM (inactive). `c1coc(-c2nc(-c3ccncc3)no2)c1` was tested, and the Kd was > 4 mM (inactive). `NC12CC3CC(C1)CC(C(=O)O)(C3)C2` was tested, and the Kd was > 4 mM (inactive). In the case of `COc1ccc(-c2cc(=O)c3c(O)cc(O[C@@H]4O[C@H](CO[C@H]5O[C@H](C)[C@@H](O)[C@H](O)[C@@H]5O)[C@@H](O)[C@H](O)[C@H]4O)cc3o2)cc1O`, the Kd was > 4 mM (inactive). For `Cc1nn(-c2ccccc2)nc1C(=O)O`, the Kd was > 4 mM (inactive). With `O=C(Cc1c(F)cccc1Cl)Nc1cccnc1` the Kd was > 4 mM (inactive). `Nc1nncn1C(=O)c1ccccc1Cl` was tested, and the Kd was > 4 mM (inactive). With `c1ccc(NCc2nc(-c3ccccc3)no2)cc1` the Kd was > 4 mM (inactive). With `O=C(O)c1ccc(-c2cccs2)cc1` the Kd was > 4 mM (inactive). With `O=C(O)c1ccc2[nH]c3c(c2c1)CSCC3` the Kd was > 4 mM (inactive). In the case of `Cc1nnc(N2CCN(Cc3ccccc3)CC2)[nH]c1=O`, the Kd was > 4 mM (inactive). For `O=c1c2ccccc2nc2n1CCC2O` (stereo not given), the Kd was > 4 mM (inactive). With `Nc1ccc2c(c1)OCO2` the Kd was > 4 mM (inactive). With `Nc1ccc2ncsc2c1` the Kd was > 4 mM (inactive). With `Cc1ccc(N2C(=O)C3C4C=CC(O4)C3C2=O)cc1` (stereo not given) the Kd was > 4 mM (inactive). In the case of `Cc1noc(-c2ccccc2)c1C(=O)O`, the Kd was > 4 mM (inactive). `c1ccc2c(c1)nnn2C1CCNCC1` was tested, and the Kd was > 4 mM (inactive). For `Nc1c(/C=C2\C=Nc3ccccc32)c(=O)nc2scnn12`, the Kd was > 4 mM (inactive). For `O=C(O)c1cnn2ccccc12`, the Kd was > 4 mM (inactive). `O=C(O)C1COc2ccccc2C1` (stereo not given) was tested, and the Kd was > 4 mM (inactive). With `Cn1c(=O)cc(O)c2ccccc21` the Kd was > 4 mM (inactive). With `C=CCCCCCCCCCCCC(O)CC(O)COC(C)=O` (stereo not given) the Kd was > 4 mM (inactive). In the case of `Cn1nc(C(=O)NC2CCCCC2)c2ccccc2c1=O`, the Kd was > 4 mM (inactive). With `Cc1nnc2ccc(N3CCCC3)nn12` the Kd was > 4 mM (inactive). In the case of `C[N+](C)(C)CC(O)CC(=O)O` (stereo not given), the Kd was > 4 mM (inactive). `COC(=O)c1sccc1S(=O)(=O)N1CCCC1` was tested, and the Kd was > 4 mM (inactive). For `O=C(O[C@@H]1Cc2c(O)cc(O)cc2O[C@@H]1c1cc(O)c(O)c(O)c1)c1cc(O)c(O)c(O)c1`, the Kd was > 4 mM (inactive). With `CC(C)(O)CC[C@@H](O)[C@](C)(O)C1CC[C@@]2(O)C3=CC(=O)C4C[C@@H](O)[C@@H](O)C[C@]4(C)C3CC[C@]12C` (stereo not given in full) the Kd was > 4 mM (inactive). `O=C(Nn1cnnc1)c1cc2c(s1)CCCC2` was tested, and the Kd was > 4 mM (inactive). In the case of `O=C(NCc1cccs1)c1ccc2c(c1)OCCO2`, the Kd was > 4 mM (inactive). For `CCn1c(C)c(C(C)=O)c(N2CCOCC2)nc1=S`, the Kd was > 4 mM (inactive). In the case of `Cc1ccc(-n2[nH]c(C)cc2=O)cc1`, the Kd was > 4 mM (inactive). For `C=C1C(=O)O[C@@H]2C[C@@]3(C)CCC[C@H](C)C3=C[C@H]12`, the Kd was > 4 mM (inactive). In the case of `O=C(Nc1ccccc1Cl)c1cnccn1`, the Kd was > 4 mM (inactive). `CS(=O)(=O)N1CCN(c2ncccn2)CC1` was tested, and the Kd was > 4 mM (inactive). `COc1ccc(-c2cc(=O)c3c(O)cc(O[C@H]4O[C@H](CO[C@@H]5O[C@@H](C)[C@H](O)[C@@H](O)[C@H]5O)[C@@H](O)[C@H](O)[C@H]4O)cc3o2)cc1` was tested, and the Kd was > 4 mM (inactive). In the case of `CC(=O)Nc1sccc1C(=O)NC(N)=O`, the Kd was > 4 mM (inactive). In the case of `Cc1noc(C)c1C(=O)N1CCC(Cc2ccccc2)CC1`, the Kd was > 4 mM (inactive). `O=C1C2CCCCC2C(=O)N1c1ccc(O)cc1` (stereo not given) was tested, and the Kd was > 4 mM (inactive). For `OCC1CN(Cc2ccccc2)CCO1` (stereo not given), the Kd was > 4 mM (inactive). For `CNS(=O)(=O)c1ccc2[nH]c(=O)[nH]c2c1`, the Kd was > 4 mM (inactive). With `NC(=O)c1ccsc1NC(=O)C1=COCCO1` the Kd was > 4 mM (inactive). In the case of `Oc1cccc(N2CCOCC2)c1`, the Kd was > 4 mM (inactive). In the case of `Nc1nncn1C(=O)c1c(Cl)cccc1Cl`, the Kd was > 4 mM (inactive). `C[C@@H]1OC(O[C@H]2[C@H](OC(=O)[C@]34CCC(C)(C)CC3C3=CCC5[C@@]6(C)CC[C@H](OC7O[C@@H](C)[C@H](O[C@@H]8OC[C@@H](O)[C@H](O)[C@H]8O)[C@@H](O)[C@H]7O)C(C)(C)C6CC[C@@]5(C)[C@]3(C)CC4O)OC[C@H](O)[C@H]2O)[C@H](O)[C@H](O)[C@H]1O[C@@H]1O[C@H](CO)[C@@H](O)[C@H](O)[C@H]1O` (stereo not given in full) was tested, and the Kd was > 4 mM (inactive). With `Nc1ncnc(Nc2ccccc2C(F)(F)F)n1` the Kd was > 4 mM (inactive). `NCc1ccc(-c2ccccn2)s1` was tested, and the Kd was > 4 mM (inactive). `COc1cc(O)c2c(=O)c(O)c(-c3ccc(O)c(O)c3)oc2c1` was tested, and the Kd was > 4 mM (inactive). For `CCOC(=O)C1CN(C)CCN1C` (stereo not given), the Kd was > 4 mM (inactive). With `N#Cc1c[nH]n2c(=O)cc(Cc3ccccc3)nc12` the Kd was > 4 mM (inactive). `Cc1ccc(C(=O)CS(C)(=O)=O)cc1` was tested, and the Kd was > 4 mM (inactive). With `CC(CC(O)C1OC1(C)C)[C@@H]1CCC2(C)C3=CCC4C(C)(C)C(=O)CCC4(C)C3CC[C@@]12C` (stereo not given in full) the Kd was > 4 mM (inactive). `c1ccc(C2NCCc3[nH]cnc32)cc1` (stereo not given) was tested, and the Kd was > 4 mM (inactive). With `CCCCCCCCCCCC1=C(O)C(=O)C=C(O)C1=O` the Kd was > 4 mM (inactive). With `NC(=O)c1ccc(N2CCCCC2)c(N)c1` the Kd was > 4 mM (inactive). `CCC(=O)NC(=S)Nc1ccc(N2CCOCC2)cc1` was tested, and the Kd was > 4 mM (inactive). With `CC(=O)NCC1(c2ccccc2)CCOCC1` the Kd was > 4 mM (inactive). `CCOC(=O)C1CCNCC1` was tested, and the Kd was > 4 mM (inactive). For `O=C1NC(=Nc2ccccc2Cl)SC1(CO)CO`, the Kd was > 4 mM (inactive). For `c1ccc(Cc2nnc3sc(-c4ccccn4)nn23)cc1`, the Kd was > 4 mM (inactive). For `Cc1ccccc1CSc1nncn1N`, the Kd was > 4 mM (inactive). `C[N+](C)(C)CC(=O)[O-]` was tested, and the Kd was > 4 mM (inactive). In the case of `CC(=O)O[C@H]1CC[C@@]2(C)C(=CCC3C2CC[C@@]2(C)C3CC[C@@H]2C(C)CCCC(C)C)C1` (stereo not given in full), the Kd was > 4 mM (inactive). For `CCOC12NC(=O)CC(=O)N1C(c1ccccc1)=CS2` (stereo not given), the Kd was > 4 mM (inactive). With `Cc1ccc(C(C)C)cc2c(C)ccc1-2` the Kd was > 4 mM (inactive). For `Cc1nc(-c2cccc(-c3noc(C)n3)c2)no1`, the Kd was > 4 mM (inactive). With `CC(=O)Nc1ccn(-c2ccccc2)n1` the Kd was > 4 mM (inactive). For `NC(=O)NC1NC(=O)NC1=O` (stereo not given), the Kd was > 4 mM (inactive). For `CC(=O)Oc1c2c(c3c(c1CC=C(C)C)O[C@]14C(=C[C@@H]5CC1C(C)(C)OC4(C/C=C(\C)C(=O)O)C5=O)C3=O)OC(C)(CCC=C(C)C)C=C2` (stereo not given in full), the Kd was > 4 mM (inactive). `CC1=[N+]([O-])C2(N)CCc3c(no[n+]3[O-])C2(O)C1` (stereo not given) was tested, and the Kd was > 4 mM (inactive). In the case of `CCn1cnc2cc(NCc3ccncc3)ccc21`, the Kd was > 4 mM (inactive). `CCOC(=O)c1c(C)cc(O)c(C=O)c1O` was tested, and the Kd was > 4 mM (inactive). With `COCC(=O)Nc1cc2c3c(c1)CCN3C(=O)CC2` the Kd was > 4 mM (inactive). In the case of `COc1ccc2c(c1)C(NC(C)=O)C(=O)N2C` (stereo not given), the Kd was > 4 mM (inactive). In the case of `Cc1occc1C(=O)NCc1ccccc1F`, the Kd was > 4 mM (inactive). With `CC(=O)NC(c1ccccc1)c1cccnc1` (stereo not given) the Kd was > 4 mM (inactive). With `CCc1ccccc1NC(=O)c1cnccn1` the Kd was > 4 mM (inactive). With `Oc1cc2c(cc1O)C1c3ccc(O)c(O)c3OCC1(O)C2` (stereo not given) the Kd was > 4 mM (inactive). With `Cc1cc(=O)cc(C)n1-c1ccccc1N1CCOCC1` the Kd was > 4 mM (inactive). In the case of `Cn1c(=O)c2c(ncn2CCNC2=NCCC2)n(C)c1=O`, the Kd was > 4 mM (inactive). With `Cc1onc(-c2ccccc2)c1CO` the Kd was > 4 mM (inactive). `Nc1ccc(N2CCOCC2)c(Cl)c1` was tested, and the Kd was > 4 mM (inactive). In the case of `NC(=O)CSCc1c(Cl)cccc1Cl`, the Kd was > 4 mM (inactive). With `CCOC(=O)C1CCN(Cc2ccccc2)CC1` the Kd was > 4 mM (inactive). In the case of `CC(=O)c1c(O)c(C)c(O)c2c1OC1=CC(=O)C(C(C)=O)C(=O)C12C` (stereo not given), the Kd was > 4 mM (inactive). For `c1ccc(C[N+]23CCN(CC2)c2ccccc23)cc1`, the Kd was > 4 mM (inactive). For `OCc1ccc2c(c1)OCO2`, the Kd was > 4 mM (inactive). In the case of `O=C(O)CCC(=O)Nc1nccs1`, the Kd was > 4 mM (inactive). `O=C(c1ccc(F)cc1)C1CCNCC1` was tested, and the Kd was > 4 mM (inactive). With `COc1ccc(C2(C)CC(=O)NC2=O)cc1` (stereo not given) the Kd was > 4 mM (inactive). `CC(C)(C)C(=O)Nc1ncc(C(F)(F)F)cc1Cl` was tested, and the Kd was > 4 mM (inactive). In the case of `CNS(=O)(=O)c1cc(OC)ccc1OC`, the Kd was > 4 mM (inactive). With `NC(=O)c1ccccc1N1CCCCC1` the Kd was > 4 mM (inactive). For `O=c1cc(-c2ccccc2)oc2cc(O)cc(O)c12`, the Kd was > 4 mM (inactive). `Cn1c(SCc2ccon2)nc2ccccc2c1=O` was tested, and the Kd was > 4 mM (inactive). For `O=C(c1cc(Cl)cc(Cl)c1)N1CCOCC1`, the Kd was > 4 mM (inactive). `O=C1Nc2ccc(S(=O)(=O)NCCO)c3cccc1c23` was tested, and the Kd was > 4 mM (inactive). For `Cc1nn(CC(=O)Nc2ccccc2)c(=O)c2ccccc12`, the Kd was > 4 mM (inactive). With `O=C(Nc1ccc(Cl)cn1)c1cnn2cccnc12` the Kd was > 4 mM (inactive). For `O=C1CCCCCN1CO`, the Kd was > 4 mM (inactive). For `CSc1ccccc1NC(=O)c1cccnc1`, the Kd was > 4 mM (inactive). `O=C(O)CNS(=O)(=O)c1cccs1` was tested, and the Kd was > 4 mM (inactive). For `COc1cc(/C=C/C(=O)/C=C(O)/C=C/c2ccc(O)c(OC)c2)ccc1O`, the Kd was > 4 mM (inactive). In the case of `CC(=O)c1ccc(CC2SC(N)=NC2=O)cc1` (stereo not given), the Kd was > 4 mM (inactive). With `O=C(O)C1CSC(c2ccco2)N1` (stereo not given) the Kd was > 4 mM (inactive). With `COC(=O)c1cc2cc(N)ccc2s1` the Kd was > 4 mM (inactive). `CC1CCN(C(=O)c2ccc3c(c2)OCCO3)CC1` was tested, and the Kd was > 4 mM (inactive). In the case of `CC(C)NC(=O)c1nc2ccccc2s1`, the Kd was > 4 mM (inactive). With `CN(C)S(=O)(=O)NCc1ccc2c(c1)OCO2` the Kd was > 4 mM (inactive). With `c1cncc(C2CCCCN2)c1` (stereo not given) the Kd was > 4 mM (inactive). In the case of `Nc1ccc2c(c1)CCC2=O`, the Kd was > 4 mM (inactive). With `CC(=O)OC1CCC2(C)C3CC(=O)C4(C)C(CC5OC6(CCC(C)CO6)[C@@H](C)C54)C3CC[C@H]2C1` (stereo not given in full) the Kd was > 4 mM (inactive). With `Cc1ccc(-c2nc(-c3cccnc3)no2)c(C)c1` the Kd was > 4 mM (inactive). With `Cc1cc(=O)n2nc(-c3ccccc3)sc2n1` the Kd was > 4 mM (inactive).
